Results as given in patent publication US7745443B2 (Sanofi-Aventis Deutschland GmbH, priority 2002, dated 2010).

Target: binding of human von Willebrand factor to europium (Eu)-chelate-labeled chimeric GPIb-Fc protein (Homo sapiens, UniProt P04275+P07359)
Test: Von Willebrand Factor-GPIb Binding Assay (Eu based, botrocetin-induced)
Details: botrocetin-induced binding of Eu-chelate-labeled chimeric GPIb-Fc to immobilized human vWF; IC50 values as specified in the examples
Description: Activity of compounds of the formula I was shown by an Eu based binding assay in which the binding of human von Willebrand factor to an europium (Eu)-chelate-labeled chimeric GPIb-Fc protein was induced by botrocetin. The preparation of the Eu-chelate-labeled chimeric GPIb-Fc protein is described in detail in a patent application (Fukuchi et al., EP1074564).
A TBS (Tris buffered saline, 20 mM Tris-HCl (pH 7.4) and 0.15 M NaCl) (50 microl) containing human von Willebrand factor (2.5 microg/ml) was added to each well of 1 96-well plate, and the von Willebrand factor was immobilized as a solid phase overnight at 4 dec. Each well was washed once with TBS (150 microl) and blocked with TBS containing 5% BSA (bovine serum albumin) for about 3 hours. Each well of the plate was washed twice with TBS (150 microl), and then added with 25 microl of an assay buffer (Assay Buffer, 1244-106, produced by Wallac) with the compounds, further added with the assay buffer (25 microl) containing the europium (Eu)-chelate-labeled chimeric GPIb-Fc protein (100 ng/ml), labeled with Eu-N1-ITC (Eu-chelate of N^1-(p-isothiocyanatebenzyl)-diethlenetriamine-N^1,N^2,N^3,N^3-tetraacetic acid, 1244-302, produced by Wallac) and botrocetin (500 ng/ml), and left stand at room temperature for 2 hours. The preparation of the Eu-chelate-labeled chimeric GPIb-Fc protein is described in detail in a patent application (Fukuchi et al., EP1074564). Each well of the plate was washed 5 times with TBS (150 microl) containing 0.05% Tween-20, then added with 100 microl of a fluorescence enhancement buffer (Enhancement Solution, 1244-104, produced by Wallac), and shaken for 1 minute. Then, the amount of europium (Eu) was measured by using a 1420 ARVO multi-label counter (produced by Wallac, measurements time: 1 second).

Chain of binding of human von Willebrand factor to europium (Eu)-chelate-labeled chimeric GPIb-Fc protein (P04275 764-2813 limits assumed, change not shown): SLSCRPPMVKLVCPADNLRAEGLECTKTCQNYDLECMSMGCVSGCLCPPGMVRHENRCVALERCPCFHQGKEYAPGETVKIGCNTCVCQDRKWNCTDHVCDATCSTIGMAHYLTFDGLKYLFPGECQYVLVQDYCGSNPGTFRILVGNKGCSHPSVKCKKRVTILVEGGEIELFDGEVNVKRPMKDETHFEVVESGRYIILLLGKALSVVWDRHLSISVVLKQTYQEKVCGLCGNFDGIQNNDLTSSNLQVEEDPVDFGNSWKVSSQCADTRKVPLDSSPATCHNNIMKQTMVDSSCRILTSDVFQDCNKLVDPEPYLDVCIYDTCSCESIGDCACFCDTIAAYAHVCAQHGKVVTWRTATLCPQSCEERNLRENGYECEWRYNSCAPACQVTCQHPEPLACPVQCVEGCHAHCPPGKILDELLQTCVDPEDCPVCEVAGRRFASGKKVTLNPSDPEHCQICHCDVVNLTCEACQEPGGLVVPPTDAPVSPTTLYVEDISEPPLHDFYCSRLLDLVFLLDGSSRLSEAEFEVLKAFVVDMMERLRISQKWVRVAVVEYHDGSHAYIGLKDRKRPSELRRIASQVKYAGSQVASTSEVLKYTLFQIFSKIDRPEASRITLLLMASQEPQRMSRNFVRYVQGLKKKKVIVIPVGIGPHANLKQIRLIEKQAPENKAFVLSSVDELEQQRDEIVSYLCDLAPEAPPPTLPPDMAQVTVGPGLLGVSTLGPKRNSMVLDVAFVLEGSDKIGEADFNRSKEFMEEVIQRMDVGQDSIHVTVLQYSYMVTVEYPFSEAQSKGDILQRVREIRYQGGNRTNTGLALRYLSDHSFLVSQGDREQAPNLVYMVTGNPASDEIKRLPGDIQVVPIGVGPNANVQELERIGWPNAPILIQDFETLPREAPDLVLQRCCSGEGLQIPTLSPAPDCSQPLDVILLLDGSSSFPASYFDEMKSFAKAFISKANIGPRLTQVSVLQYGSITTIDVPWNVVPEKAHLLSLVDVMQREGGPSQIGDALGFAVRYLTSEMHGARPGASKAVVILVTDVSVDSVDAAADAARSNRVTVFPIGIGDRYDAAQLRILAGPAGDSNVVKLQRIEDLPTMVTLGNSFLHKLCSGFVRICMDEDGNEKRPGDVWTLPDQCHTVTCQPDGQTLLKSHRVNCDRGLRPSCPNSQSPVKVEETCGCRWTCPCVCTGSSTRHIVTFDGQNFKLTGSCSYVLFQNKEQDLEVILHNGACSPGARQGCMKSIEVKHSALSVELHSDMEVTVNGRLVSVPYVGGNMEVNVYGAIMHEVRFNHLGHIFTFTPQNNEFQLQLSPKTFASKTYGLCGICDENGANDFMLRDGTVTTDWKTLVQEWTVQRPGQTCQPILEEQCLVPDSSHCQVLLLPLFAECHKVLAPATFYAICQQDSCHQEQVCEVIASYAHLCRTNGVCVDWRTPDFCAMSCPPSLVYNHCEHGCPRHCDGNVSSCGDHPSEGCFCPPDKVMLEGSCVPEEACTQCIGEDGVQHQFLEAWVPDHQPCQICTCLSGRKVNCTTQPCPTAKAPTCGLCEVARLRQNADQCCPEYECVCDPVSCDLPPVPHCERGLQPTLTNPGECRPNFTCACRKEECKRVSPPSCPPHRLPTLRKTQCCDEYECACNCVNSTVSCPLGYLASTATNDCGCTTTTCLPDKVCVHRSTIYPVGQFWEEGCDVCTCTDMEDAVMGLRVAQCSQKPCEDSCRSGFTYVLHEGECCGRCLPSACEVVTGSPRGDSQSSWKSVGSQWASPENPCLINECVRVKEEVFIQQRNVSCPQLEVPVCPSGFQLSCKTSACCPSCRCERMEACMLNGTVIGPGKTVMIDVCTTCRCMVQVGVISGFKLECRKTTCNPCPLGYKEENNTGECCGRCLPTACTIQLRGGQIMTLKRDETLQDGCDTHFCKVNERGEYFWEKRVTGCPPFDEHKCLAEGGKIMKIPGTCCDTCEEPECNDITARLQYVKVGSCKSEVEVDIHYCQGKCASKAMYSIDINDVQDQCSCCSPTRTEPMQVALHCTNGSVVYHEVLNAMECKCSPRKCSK
Chain of binding of human von Willebrand factor to europium (Eu)-chelate-labeled chimeric GPIb-Fc protein (P07359 17-335 limits assumed, change not shown): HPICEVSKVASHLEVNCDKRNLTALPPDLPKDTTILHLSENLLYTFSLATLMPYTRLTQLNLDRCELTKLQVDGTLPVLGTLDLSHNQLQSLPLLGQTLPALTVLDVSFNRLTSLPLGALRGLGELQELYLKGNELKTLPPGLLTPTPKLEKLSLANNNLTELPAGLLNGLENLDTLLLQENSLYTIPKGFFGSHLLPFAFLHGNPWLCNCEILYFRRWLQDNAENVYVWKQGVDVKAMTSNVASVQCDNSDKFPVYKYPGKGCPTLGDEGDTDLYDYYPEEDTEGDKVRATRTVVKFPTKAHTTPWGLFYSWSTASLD

Row | Compound | IC50 [µM]
1 | 4-Amino-N-(4-{[(2-methyl-1H-benzimidazol-5-yl)carbonyl]amino}phenyl)-2-methyl-6-quinolinecarboxamide [Example 28] | 9.56
2 | Cc1cc(NCCC(=O)Nc2ccc3nc(C)cc(N)c3c2)nc(N)n1 [Example 1, 3-(2-Amino-6-methyl-pyrimidin-4-ylamino)-N-(4-amino-2-methyl-quinolin-6-yl)-propionamide] | 24.3
3 | Cc1cc(N)c2cc(NC(=O)c3cccc(Nc4cc(C)[n+](C)c(N)n4)c3)ccc2n1 [Example 2, 2-Amino-4-[3-(4-amino-2-methyl-quinolin-6-ylcarbamoyl)-phenylamino]-1,6-dimethyl-pyrimidin-1-ium] | 8.84
4 | Cc1cc(N)c2cc(NC(=O)c3ccc(CNc4cc(C)[n+](C)c(N)n4)cc3)ccc2n1 [Example 3, 2-Amino-4-[4-(4-amino-2-methyl-quinolin-6-ylcarbamoyl)-benzylamino]-1,6-dimethyl-pyrimidin-1-ium] | 92.1
5 | Cc1cc(N)c2cc(NC(=O)c3ccc(CNC(=O)c4cnccn4)cc3)ccc2n1 [Example 4, Pyrazine-2-carboxylic acid 4-(4-amino-2-methyl-quinolin-6-ylcarbamoyl)-benzylamide] | 75.5
6 | Cc1cc(N)c2cc(NC(=O)c3ccc(CNC(=O)c4ccc(N)nc4)cc3)ccc2n1 [Example 5, 6-Amino-N-[4-(4-amino-2-methyl-quinolin-6-ylcarbamoyl)-benzyl]-nicotinamide] | 89.9
7 | Cc1cc(N)c2cc(NC(=O)c3ccc(CNC(=O)c4cncc(N5CCCC5)n4)cc3)ccc2n1 [Example 6, 6-Pyrrolidin-1-yl-pyrazine-2-carboxylic acid 4-(4-amino-2-methyl-quinolin-6-ylcarbamoyl)-benzylamide] | 47.9
8 | Cc1cc(N)c2cc(C(=O)Nc3ccc(Nc4cc(C)[n+](C)c(N)n4)cc3)ccc2n1 [Example 7, 2-Amino-4-[(4-{[(4-amino-2-methyl-6-quinolinyl)carbonyl]amino}phenyl)amino]-1,6-dimethylpyrimidin-1-ium] | 7.62
9 | Cc1cc(N)c2cc(C(=O)Nc3cccc(Nc4cc(C)[n+](C)c(N)n4)c3)ccc2n1 [Example 8, 2-Amino-4-[(3-{[(4-amino-2-methyl-6-quinolinyl)carbonyl]amino}phenyl)amino]-1,6-dimethylpyrimidin-1-ium] | 82.6
10 | Cc1cc(N)c2cc(C(=O)Nc3ccc(CNc4cc(C)[n+](C)c(N)n4)cc3)ccc2n1 [Example 9, 2-Amino-4-[(4-{[(4-amino-2-methyl-6-quinolinyl)carbonyl]amino}benzyl)amino]-1,6-dimethylpyrimidin-1-ium] | 20.1
11 | Cc1cc(NCc2ccc(NC(=O)c3ccc4nc(C)cc(N)c4c3)cc2)nc(N)n1 [Example 10, 2-Amino-4-[(4-{[(4-amino-2-methyl-6-quinolinyl)carbonyl]amino}benzyl)amino]-6-methylpyrimidine] | 68.6
12 | Cc1cc(N)c2cc(C(=O)Nc3ccc(CNC(=O)c4ccc(Cl)nc4)cc3)ccc2n1 [Example 11, 4-Amino-N-[4-({[(6-chloro-3-pyridinyl)carbonyl]amino}methyl)phenyl]-2-methyl-6-quinolinecarboxamide] | 42.9
13 | Cc1cc(N)c2cc(C(=O)Nc3ccc(CNC(=O)c4ccccn4)cc3)ccc2n1 [Example 12, 4-Amino-2-methyl-N-(4-{[(2-pyridinylcarbonyl)amino]methyl}phenyl)-6-quinolinecarboxamide] | 58.4
14 | Cc1cc(N)c2cc(C(=O)Nc3ccc(CNC(=O)c4ccnc(Cl)c4)cc3)ccc2n1 [Example 13, 4-Amino-N-[4-({[(2-chloro-4-pyridinyl)carbonyl]amino}methyl)phenyl]-2-methyl-6-quinolinecarboxamide] | 90.1
15 | Cc1cc(N)c2cc(C(=O)Nc3ccc(CNC(=O)c4cncc(Br)c4)cc3)ccc2n1 [Example 14, 4-Amino-N-[4-({[(3-bromo-5-pyridinyl)carbonyl]amino}methyl)phenyl]-2-methyl-6-quinolinecarboxamide] | 28.8
16 | Cc1cc(N)c2cc(C(=O)Nc3ccc(CNC(=O)c4nccnc4N)cc3)ccc2n1 [Example 15, 4-Amino-N-[4-({[(3-amino-2-pyrazinyl)carbonyl]amino}methyl)phenyl]-2-methyl-6-quinolinecarboxamide] | 54.7
17 | Cc1cc(N)c2cc(C(=O)Nc3ccc(NC(=O)c4ccccn4)cc3)ccc2n1 [Example 16, 4-Amino-N-{4-[(2-pyridinylcarbonyl)amino]phenyl}-2-methyl-6-quinolinecarboxamide] | 43.2

Row | Compound | IC50 [µM]
18 | Cc1cc(N)c2cc(C(=O)Nc3ccc(NC(=O)c4cccnc4)cc3)ccc2n1 [Example 17, 4-Amino-N-{4-[(3-pyridinylcarbonyl)amino]phenyl}-2-methyl-6-quinolinecarboxamide] | 15
19 | Cc1cc(N)c2cc(C(=O)Nc3ccc(NC(=O)c4cccnc4Cl)cc3)ccc2n1 [Example 18, 4-Amino-N-(4-{[(2-chloro-3-pyridinyl)carbonyl]amino}phenyl)-2-methyl-6-quinolinecarboxamide] | 52.6
20 | Cc1cc(N)c2cc(C(=O)Nc3ccc(NC(=O)c4cncc(Br)c4)cc3)ccc2n1 [Example 19, 4-Amino-N-(4-{[(5-bromo-3-pyridinyl)carbonyl]amino}phenyl)-2-methyl-6-quinolinecarboxamide] | 20.9
21 | Cc1cc(N)c2cc(C(=O)Nc3ccc(NC(=O)c4nccnc4N)cc3)ccc2n1 [Example 20, 4-Amino-N-(4-{[(2-amino-3-pyrazinyl)carbonyl]amino}phenyl)-2-methyl-6-quinolinecarboxamide] | 4.41
22 | Cc1cc(N)c2cc(C(=O)Nc3ccc(NC(=O)c4cccnc4N)cc3)ccc2n1 [Example 21, 4-Amino-N-(4-{[(2-amino-3-pyridinyl)carbonyl]amino}phenyl)-2-methyl-6-quinolinecarboxamide] | 34.4
23 | Cc1cc(N)c2cc(C(=O)Nc3ccc(NC(=O)c4ccc(N)nc4)cc3)ccc2n1 [Example 22, 4-Amino-N-(4-{[(2-amino-5-pyridinyl)carbonyl]amino}phenyl)-2-methyl-6-quinolinecarboxamide] | 11.1
24 | Cc1cc(N)c2cc(C(=O)Nc3ccc(NC(=O)c4ccc(O)nc4)cc3)ccc2n1 [Example 23, 4-Amino-N-(4-{[(2-hydroxy-5-pyridinyl)carbonyl]amino}phenyl)-2-methyl-6-quinolinecarboxamide] | 42.1
25 | Cc1cc(N)c2cc(C(=O)Nc3ccc(NC(=O)c4cnccn4)cc3)ccc2n1 [Example 24, 4-Amino-N-(4-{[(2-pyrazinyl)carbonyl]amino}phenyl)-2-methyl-6-quinolinecarboxamide] | 15.2
26 | Cc1cc(N)c2cc(C(=O)Nc3ccc(NC(=O)c4cnc(Cl)c(Cl)c4)cc3)ccc2n1 [Example 25, 4-Amino-N-(4-{[(2,3-dichloro-5-pyridinyl)carbonyl]amino}phenyl)-2-methyl-6-quinolinecarboxamide] | 22.9
27 | Cc1cc(N)c2cc(C(=O)Nc3ccc(NC(=O)c4ccc(Cl)c(S(N)(=O)=O)c4)cc3)ccc2n1 [Example 26, 4-Amino-N-(4-{[3-(aminosulfonyl)-4-chlorobenzoyl]amino}phenyl)-2-methyl-6-quinolinecarboxamide] | 32.8
28 | Cc1cc(N)c2cc(C(=O)Nc3ccc(NC(=O)c4cccc(N(C)C)c4)cc3)ccc2n1 [Example 27, 4-Amino-N-{4-[(3-dimethylaminobenzoyl)amino]phenyl}-2-methyl-6-quinolinecarboxamide] | 46.5
29 | Cc1cc(N)c2cc(C(=O)Nc3ccc(NC(=O)c4ccc(OC5CCNCC5)cc4)cc3)ccc2n1 [Example 29, 4-Amino-N-(4-{[4-(4-piperidinyloxy)benzoyl]amino}phenyl)-2-methyl-6-quinolinecarboxamide] | 19.8
30 | Cc1cc(N)c2cc(C(=O)Nc3ccc(NC(=O)c4ccc5[nH]c(N)nc5c4)cc3)ccc2n1 [Example 30, 4-Amino-N-(4-{[(2-amino-1H-benzimidazol-5-yl)carbonyl]amino}phenyl)-2-methyl-6-quinolinecarboxamide] | 4.03
31 | Cc1cc(N)c2cc(C(=O)Nc3ccc(NC(=O)c4ccc5nc(N)sc5c4)cc3)ccc2n1 [Example 31] | 2.9
32 | Cc1cc(N)c2cc(C(=O)Nc3ccc(NC(=O)c4ccc5[nH]cnc5c4)cc3)ccc2n1 [Example 32, 4-amino-N-{4-[(1H-benzimidazol-5-ylcarbonyl)amino]phenyl}-2-methyl-6-quinolinecarboxamide] | 7.5
33 | Cc1cc(N)c2cc(C(=O)Nc3ccc(NC(=O)c4ccc5nc(N)ccc5c4)cc3)ccc2n1 [Example 33, 4-Amino-N-(4-{[(2-amino-6-quinolinyl)carbonyl]amino}phenyl)-2-methyl-6-quinolinecarboxamide] | 1.7
34 | COc1cc(NC(=O)c2ccc3nc(N)ccc3c2)ccc1NC(=O)c1ccc2nc(C)cc(N)c2c1 [Example 34, 4-Amino-N-(4-{[(2-amino-6-quinolinyl)carbonyl]amino}-2-methoxyphenyl)-2-methyl-6-quinolinecarboxamide] | 3.61
